Laboratory results published in patent US20090298903A1, “USE OF TETRAMIC ACID DERIVATIVES FOR INSECT CONTROL” (priority 2006, published 2009).

Key:
Format in all cases: in vivo
[1] = system: Ceutorhynchus napi; assay: Example 26-A: oilseed rape against Ceutorhynchus napi; settings: 55 d after treatment, larvae, Deltamethrin (25 EC) 5, (I-4) (+ 0.2% rapeseed oil methyl ester) 72, Thiacloprid (OD 240) 72, Lambda-cyhalothrin 5 g a.s./ha
Description: Plots approx. 25 m^2 in size which are planted with oilseed rape cv. “Artus” are treated, in four replications, against Ceutorhynchus napi. The application is carried out with a motor-operated knapsack sprayer. Here, the active substance Example (I-4), in a tank mix with 0.2% a.s. rapeseed oil methyl ester (500 EW) and the commercial standards Deltamethrin (25 EC), lambda-cyhalothrin (S100) and Thiacloprid (OD 240), is tested at the specified application rates. The water application rate is 250 l/ha.
The test is evaluated 55 days after the treatment by scoring the destruction rate of the larvae on the plants.

[2] = system: Frankliniella occidentalis; assay: Example 2: bell peppers against Frankliniella occidentalis; settings: Acrinathrin 60, (I-9) 54, (I-4) 60 g a.s./ha, (I-9)/(I-4) 240 SC + 0.1% rapeseed oil methyl ester
Description: Plots 10 m^2 in size which are planted with bell peppers cv. “Zingaro” are treated, in three replications, against Frankliniella occidentalis. The application is effected with a knapsack sprayer which is operated with pressurized air. Here, the active substances Example (I-9) (240 SC) and Example (I-4) (240 SC), in the form of a tank mix together with 0.1% a.s. rapeseed oil methyl ester (500 EW) and the commercial standard acrinathrin (075 EW), are applied at the specified application rates. Two applications are carried out at an interval of 24 days, with a water application rate of 1000 l/ha.
The test is evaluated 17 and 21 days after treatment 1 and 4 days after treatment 2 by scoring the destruction of the animals (nymphs) on the flowers.

[3] = system: Empoasca biguttula; assay: Example 12: cotton against Empoasca biguttula
Description: Plots 10 m^2 in size which are planted with cotton are treated, in three replications, against Empoasca biguttula. The application is carried out with a knapsack sprayer operated with pressurized air. Here, the active substance Example (I-4) (240 SC), in a tank mix with 0.2% a.s. rapeseed oil methyl ester (500 EW), is tested against the commercial standards Imidacloprid (SL 100) and Buprofezin (WP50) at the specified application rates. Two applications are carried out at an interval of 7 days. The water application rate is 750 l/ha.
The test is evaluated 3, 7, 14 and 21 days after the second treatment by counting the live animals. Thereafter, the efficacy is calculated in percent, using the formula of Henderson and Tilton.

[4] = system: Liriomyza sp.; assay: Example 18: beans against Liriomyza sp.; settings: for Efficacy (% Abbott) 2 d: 2 d after first treatment, 10 leaves, Cyromazine (WP 75) 130, (I-4) (150 OD) 100, Abamectin (EC 018) 14.4 g a.s./ha, three applications, 7-day intervals; for Efficacy (% Abbott) 7 d: 7 d after first treatment; for Efficacy (% Abbott) 7 d / Efficacy (% Abbott) 12 d / Efficacy (% Abbott) 18 d / Efficacy (% Abbott) 20 d / Efficacy (% Abbott) 25 d: Cyromazine 130, (I-4) 100, Abamectin 14.4 g a.s./ha; for Efficacy (% Abbott) 12 d: 12 d after first treatment; for Efficacy (% Abbott) 18 d: 18 d after first treatment; for Efficacy (% Abbott) 20 d: 20 d after first treatment; for Efficacy (% Abbott) 25 d: 25 d after first treatment
Description: Plots approx. 10 m^2 in size which are planted with beans cv. “Lago Azul” are treated, in three replications, against Liriomyza sp. Here, the active substance Example (I-4) (150 OD) and the commercial standards Cyromazine (WP 75) and Abamectin (EC 018) are applied at the specified application rates, using a knapsack sprayer which is operated with pressurized gas. The water application rate is 400 and 500 l/ha., respectively. Three applications are carried out at intervals of in each case 7 days.
The destruction rate in percent is determined on in each case 10 leaves. 2, 7, 12, 18, 20 and 25 days after the first treatment, the following results are obtained: […]

[5] = system: Scirtothrips dorsalis; assay: Example 10: tea plants against Scirtothrips dorsalis; settings: 7 d after treatment, nymphs, Ethiprole (SC10) 0.005, (I-4) (100 OD) 0.01, Imidacloprid (50 WG) 0.005 % a.s.
Description: Plots approx. 5 m^2 in size which are planted with tea plants cv. “Yabukita” which are approximately 18 years old are treated, in three replications, against Scirtothrips dorsalis. Here, the active substance Example (I-4) (100 OD) is tested, at the specified application rates, against the commercial standards Ethiprole (SC10 flowable) and Imidacloprid (50 WG). The application is carried out with a sprayer which is operated with pressurized air. The water application rate is 4500 l/ha. The test is evaluated 7 days after the treatment by scoring the destruction rate of the nymphs and the plants.

[6] = system: Ceratitis capitata; assay: Example 20: peach trees against Ceratitis capitata; settings: animals on fruits
Description: Peach trees cv. “Oom Sarel” which are approximately 10 years old are treated, in three replications, against Ceratitis capitata. The application is carried out with a high-pressure sprayer or a knapsack sprayer which is operated with pressurized air. Here, the active substance Example (I-4) (150 OD) and the commercial standard Fenthion (500 EC) are tested at the specified application rates. The water application rate is 2500 l/ha. Three applications are carried out at an interval of 7 and 19 days, respectively.
The test is evaluated 9 and 16 days after treatment 3 by scoring the destruction rate of the animals on the fruits with the aid of the Abbott formula.

[7] = system: Dacus ciliatus; assay: Example 22A: bottle gourds against Dacus ciliatus
Description: Plots approx. 10 m^2 in size which are planted with bottle gourds cv. “Waltham” are treated, in three replications, against Dacus ciliatus. The application is carried out with a motor-operated knapsack sprayer. Here, the active substance Example (I-4) (150 OD) and the commercial standard Fenthion (500 EC) are tested at the specified application rates. Three applications are carried out at in each case an interval of 7 days. The water application rate is approx. 500 l/ha.
The test is evaluated 8, 14 and 21 days after treatment 1 by scoring the infestation of the fruits.

[8] = system: olive fruit fly (Dacus oleae); assay: Example 22B: laboratory experiment, olives against olive fruit fly; settings: olives treated three days after oviposition; Imidacloprid (200 SL) 0.01 %, (I-4) (100 OD) 0.02 %, Fenthion (500 EC) 0.05 %; untreated 84.4
Description: In a laboratory experiment, 40 olives are treated, in four replications, against the olive fruit fly (Dacus oleae) three days after oviposition. Here, the active substance (I-4) (100 OD) and the commercial standards Fenthion (500 EC) and Imidacloprid (200 SL) are tested at the specified application rates.
The test is evaluated 14 days after oviposition by counting the number of feeding tunnels (larval development completed), while the absence of such feeding tunnels indicates the efficacy against the larvae.

[9] = system: Idioscopus clypealis; assay: Example 14: mango tree against Idioscopus clypealis; settings: nymphs on infructescences
Description: A mango tree which is approximately 14 years old is treated, in three replications, against Idioscopus clypealis. The application is carried out with a high-pressure sprayer. Here, the active substance Example (I-4) (240 SC), in a tank mix with 0.2% a.s. rapeseed oil methyl ester (500 EW) and the commercial standards Imidacloprid (100 SL) and Pymetrozine (WP 25), is tested at the specified application rates. The amount of spray mixture is 10 l/tree. Five treatments are carried out at intervals of 7, 14, 21 and 28 days.
The test is evaluated in each case 7 days after treatments 3 to 5 by scoring the destruction rate of the nymphs on the infructescences.

[10] = system: Frankliniella occidentalis; assay: Example 5: aubergines against Frankliniella occidentalis; settings: mixed populations on leaves
Description: Plots 6 m^2 in size which are planted with aubergines cv. “Soraya” are treated, in three replications, against Frankliniella occidentalis. The application is effected with a motor-operated knapsack sprayer. Here, the active substances Example (I-4) (240 SC) and Example (I-9) (240 SC), in a tank mix together with 0.1% a.s. rapeseed oil methyl ester (500 EW) and the commercial standard Spinosad (480 SC), are tested at the specified application rates. The water application rate is 1500 l/ha.
The test is evaluated 25, 32 and 39 days after the treatment by scoring the destruction rate of the mixed populations on the leaves.

[11] = Imidacloprid 0.00025 %, (I-4) 0.0016 %, Pymetrozine 0.002 %

## CC1(C)[C@H](C(=O)O[C@H](C#N)c2cccc(Oc3ccccc3)c2)[C@@H]1/C=C(\Cl)C(F)(F)F (racemic) [Lambda-cyhalothrin, lambda-cyhalothrin]
[1]
  Efficacy (% Abbott) 55 d: 89.5 % Abbott

## CC1(C)[C@H](C(=O)O[C@H](C#N)c2cccc(Oc3ccccc3)c2)[C@@H]1/C=C\C(=O)OC(C(F)(F)F)C(F)(F)F [Acrinathrin, acrinathrin]
[2]; 4 d after treatment 2, nymphs on flowers
  Efficacy (% Abbott) 4 d (2): 87 % Abbott
[2]; 17 d after treatment 1, nymphs on flowers
  Efficacy (% Abbott) 17 d (1): 98 % Abbott
[2]; 21 d after treatment 1, nymphs on flowers
  Efficacy (% Abbott) 21 d (1): 91 % Abbott

## CC(C)N1C(=O)N(c2ccccc2)CS/C1=N\C(C)(C)C [Buprofezin]
[3]; 3 d after second treatment, Henderson and Tilton, Imidacloprid (SL 100) 30, (I-4) (240 SC + 0.2% rapeseed oil methyl ester) 24, Buprofezin (WP50) 50 g a.s./ha
  Efficacy (% H + T) 3 d: 96.5 % H + T
[3]; 7 d after second treatment, Imidacloprid 30, (I-4) 24, Buprofezin 50 g a.s./ha
  Efficacy (% H + T) 7 d: 94.7 % H + T
[3]; 14 d after second treatment, Imidacloprid 30, (I-4) 24, Buprofezin 50 g a.s./ha
  Efficacy (% H + T) 14 d: 90.1 % H + T
[3]; 21 d after second treatment, Imidacloprid 30, (I-4) 24, Buprofezin 50 g a.s./ha
  Efficacy (% H + T) 21 d: 67.1 % H + T

## Nc1nc(N)nc(NC2CC2)n1 [Cyromazine]
[4]
  Efficacy (% Abbott) 2 d: 44 % Abbott
  Efficacy (% Abbott) 7 d: 61 % Abbott
  Efficacy (% Abbott) 12 d: 42 % Abbott
  Efficacy (% Abbott) 18 d: 54 % Abbott
  Efficacy (% Abbott) 20 d: 32 % Abbott
  Efficacy (% Abbott) 25 d: 0 % Abbott

## CC[S+]([O-])c1c(C#N)nn(-c2c(Cl)cc(C(F)(F)F)cc2Cl)c1N (stereo not drawn) [Ethiprole]
[5]
  Efficacy (% Abbott) 7 d: 100 % Abbott

## COP(=S)(OC)Oc1ccc(SC)c(C)c1 [Fenthion]
[6]; Fenthion 1700, (I-4) 100 g a.s./ha
  Efficacy (% Abbott) 16 d after treatment 3: 88.9 % Abbott
[6]; Fenthion (500 EC) 1700, (I-4) (150 OD) 100 g a.s./ha
  Efficacy (% Abbott) 9 d after treatment 3: 86.7 % Abbott
[7]; 8 d after treatment 1, infestation of fruits, Fenthion (500 EC) 300, (I-4) (150 OD) 200 g a.s./ha, three applications, 7-day intervals
  Efficacy (% Abbott) 8 d: 59.6 % Abbott
[7]; 14 d after treatment 1, Fenthion 300, (I-4) 200 g a.s./ha
  Efficacy (% Abbott) 14 d: 48.9 % Abbott
[7]; 21 d after treatment 1, Fenthion 300, (I-4) 200 g a.s./ha
  Efficacy (% Abbott) 21 d: 60.3 % Abbott
[8]
  Number of feeding tunnels (%) 14 days after oviposition: 1.9%

## CC1=NNC(=O)N(/N=C/c2cccnc2)C1 [Pymetrozine]
[9]; [11]
  Efficacy (% Abbott) 7 days after treatment 4: 98.6 % Abbott
  Efficacy (% Abbott) 7 days after treatment 5: 94.8 % Abbott
[9]; Imidacloprid (100 SL) 0.00025 %, (I-4) (240 SC + 0.2% rapeseed oil methyl ester) 0.0016 %, Pymetrozine (WP 25) 0.002 %
  Efficacy (% Abbott) 7 days after treatment 3: 70.9 % Abbott

## Abamectin
[4]
  Efficacy (% Abbott) 2 d: 36 % Abbott
  Efficacy (% Abbott) 7 d: 80 % Abbott
  Efficacy (% Abbott) 12 d: 52 % Abbott
  Efficacy (% Abbott) 18 d: 70 % Abbott
  Efficacy (% Abbott) 20 d: 43 % Abbott
  Efficacy (% Abbott) 25 d: 60 % Abbott

## Spinosad
[10]; 25 d after treatment, Spinosad (480 SC) 0.012, (I-9) 0.0054, (I-4) 0.012 % a.s., 240 SC + 0.1% rapeseed oil methyl ester
  Efficacy (% Abbott) 25 d: 94.7 % Abbott
[10]; 32 d after treatment, Spinosad 0.012, (I-9) 0.0054, (I-4) 0.012 % a.s.
  Efficacy (% Abbott) 32 d: 89.3 % Abbott
[10]; 39 d after treatment, Spinosad 0.012, (I-9) 0.0054, (I-4) 0.012 % a.s.
  Efficacy (% Abbott) 39 d: 95.3 % Abbott
